Marks after values point to notes of the source that are not given here.
Assays:
[1] = system: senescent human fibroblasts; assay: Hyaluronic acid synthesis by senescent human fibroblasts (ELISA), with or without TGFβ; assay type: cell-based; details: for HA / HA % of control: 72 h
Source text: This study has been performed in order to evaluate the effects of the EPSs on the synthesis of hyaluronic acid by senescent human fibroblasts. […] These senescent cells are obtained by subcultures of normal dermal fibroblasts and a senescent phenotype is obtained from the 12th passage.
This effect was attributed to an increase in sensitivity of cells to EGF. Based on this observation for EGF, a similar situation could exist for other factors like TGFβ. TGFβ has the ability to trigger HA synthesis. It has been observed however, that older cells become desensitized to TGFβ. Two types of effects of EPSS have thus been tested: their direct effect on the production of HA and their possibility to restore sensitivity of the cells to TGFβ.
Senescent fibroblasts were pre-cultivated for 24 hours until confluence. Then, the culture medium was removed and replaced by assay medium containing or not (control), the tested EPSS alone, TGFβ alone or the mix of tested EPSS with TGFβ. The cells were then cultivated for 72 hours. At the end of the incubation, the hyaluronic acid concentration was evaluated in the supernatant by a standard ELISA assay according to the manufacturer's procedures (R&D Systems DY3614) and cell viability was evaluated by using a standard MTT incorporation assay.

[2] = system: kallikrein 6 (KLK6, neurosin) mRNA; assay: RT-QPCR gene expression in human keratinocytes: KLK6; assay type: cell-based; details: Table VIII (first step), 24 h
Method: (§1) This assay was performed in order to measure the effects of the EPSs on the induction of mRNA coding for differentiation proteins (filaggrin, loricrin, involucrin) and for stratum corneum tryptic enzyme involved in desquamation (kallikrein 5, 6 and 7). The relative expression of the selected markers was assayed using the “real time quantitative polymerase chain reaction” technology (RT-QPCR).
(§2) Keratinocytes were pre-cultivated in culture medium. At confluence, the culture medium was changed into assay medium (SFM without EGF and pituitary extract) containing or not (control) the test compound and the cells were incubated for 24 h at 37° C. and 5% CO2. At the end of the experiment, the cells were washed in PBS buffer and immediately frozen at −80° C. with 300 μl per well of Tri-reagent.
(§3) Primers couples allowing the amplification of a specific Polymerase Chain Reactions (PCR) product from each selected marker were used: Liver glyceraldehyde 3-phosphate dehydrogenase (G3PDH) was used as a reference marker in this experiment. The total RNA extraction was performed by Tri-Reagent™ according to the protocol. […]
(§4) Initially, the modulation of gene expression was evaluated on six EPSs at the first concentration (Table VIII). As a second step, it was evaluated on four EPSs at three concentrations (Table IX).

[3] = system: kallikrein 7 (KLK7, stratum corneum chymotrypsic enzyme) mRNA; assay: RT-QPCR gene expression in human keratinocytes: KLK7; assay type: cell-based; details: Table VIII (first step), 24 h
Method: as §1, §2, §3, §4

[4] = system: loricrin (LOR) mRNA; assay: RT-QPCR gene expression in human keratinocytes: loricrin; assay type: cell-based; details: Table VIII (first step), 24 h
Method: as §1, §2, §3, §4

[5] = system: filaggrin (FLG) mRNA; assay: RT-QPCR gene expression in human keratinocytes: filaggrin; assay type: cell-based; details: Table VIII (first step), 24 h
Method: as §1, §2, §3, §4

[6] = system: kallikrein 5 (KLK5) mRNA; assay: RT-QPCR gene expression in human keratinocytes: KLK5; assay type: cell-based; details: Table VIII (first step), 24 h
Method: as §1, §2, §3, §4

[7] = system: involucrin (INV) mRNA; assay: RT-QPCR gene expression in human keratinocytes: involucrin; assay type: cell-based; details: Table VIII (first step), 24 h
Method: as §1, §2, §3, §4

[8] = system: human keratinocytes; assay: Overall desquamation/differentiation gene expression profile in human keratinocytes; assay type: cell-based; details: 24 h
Method: as §1, §2, §3, §4

[9] = system: intracellular lipid peroxides of irradiated keratinocytes; assay: Lipid peroxides in UV-irradiated keratinocytes (C11-Fluor probe, flow cytometry); assay type: cell-based, human; details: 50 μM; UVB 210 mJ/cm^2
Method: This study was performed to evaluate the effect of EPSs of the invention on the relative quantification of the amount of lipid peroxides (LP) (degradation of skin lipids) in human cells exposed or not to UVA+UVB irradiation. The evaluation was obtained by using a specific fluorescent probe and fluorescence flow cytometry analysis. This method offers a great sensitivity because the fluorescence of each cell is measured and numerous cells are evaluated (10000 cells per experimental condition).
Keratinocytes were pre-cultivated in complete SFM medium up to 100% of confluence. The culture medium was then replaced with assay medium containing or not the tested EPSS or the reference and the cells were incubated at 37° C. and 5% CO2 for 24 h. After incubation, a specific probe, fluorescent analogue of lipids (C11-Fluor) and the tested EPS or the references were incorporated and the cells were incubated at 37° C. and 5% CO2 for 45 minutes. The probe was then eliminated by rinsing with culture medium. The washing medium was replaced with culture medium containing the tested EPSs or the references. Untreated controls were carried out in parallel. The cells were irradiated at 210 mJ/cm^2 UVB. […] The fluorescence parameters were measured by flow cytometry with a FACSArray™ cytometer driven by the FACSArray™ system software (Becton-Dickinson) on 10 000 individual cells (no cell population selection). […]

[10] = system: human skin explants; assay: Antipollution activity on human skin explants (MDA assay, morphology); details: for MDA concentration: 2 mg per explant topical
Method: This study was performed to evaluate the antipollution activity of a cosmetic product though its effect against free radicals on normal skin. A mixture of pollutants and heavy metals was used to mimic the harmful effects of an environmental pollution (like fumes, smoke . . . ). Explants were used as a skin model in this experiment as a good model of human skin.
Pieces of human skin (27 explants) were prepared from an abdominal biopsy removed from a healthy subject during cosmetic reductive surgery. They were placed in BEM medium at 37° C. and 5% CO2. The tested EPSS were applied on the surface of epidermis (topical treatment) at the indicated concentrations (2 mg per explant). They were applied the first day (Day 0) and after one, two, three and four days (Day 1, Day 2, Day 3 and Day 4).
At Day 4, 30 μL of a mixture of heavy metals (Table XII) and hydrocarbon was applied on a paper disk and immediately placed on identified explants.
At Day 0 and Day 5, 3 explants of each batch were removed and fixed in Bouin's liquid for morphological observation. After 48 hours in Bouin medium, explants were dehydrated, embedded in paraffin and stained in Masson's Trichrome. The MDA assay (Malondialdehyde, a stable product from the radical alteration) was performed in culture medium of Day 3, 24 h after irradiation to quantify the efficiency of products against free radicals generated by pollutants.

[11] = system: SkinEthic reconstructed human epidermis; assay: Epidermal lipid synthesis (14C-acetate incorporation, TLC) in reconstructed epidermis; assay type: cell-based; details: 10^−6M in culture medium (systemic), 72 h
Method: This study was performed to evaluate the effect of EPSs of the invention on lipid synthesis. Phospholipids (cellular membranes) and neutral lipids (including epidermis specific lipids) were measured separately using thin layer chromatography. SkinEthic™ reconstructed human epidermis was used for model, its composition being close to normal human epidermis.
The epidermal tissues were placed in 24-well plates and cultivated for 12 h in SkinEthic™ medium. The medium was then replaced by fresh medium and the tested EPSS were applied on the surface of epidermis (topical treatment), at the indicated concentrations. Three control epidermises were untreated and three reference epidermises were treated with the retinoic acid, a known stimulant of total skin lipids, in the culture medium (systemic treatment). All treatments were performed in triplicate and cultivated for 72 hours in total. After 24 h treatment, the culture medium was replaced by labelling medium (0.225 μCi/wells of [^14C] acetate) and the epidermises were treated. The labelling was carried out during a 48-hour incubation period. The Radioactive marker used was [2-14C]-Acetic acid sodium salt, Amersham CFA14 (2.04 Gbq/mmol, 55 mCi/mmol). The epidermises were washed in PBS solution and were dissociated. Then, cells were lysed by treatment with perchloric acid at 0.5 M on ice. Lipids were extracted by methanol/chloroform (2:1) and phase separation was performed by addition of PBS and chloroform after neutralisation in accordance with the procedure described by Bligh and Dyer. The radioactivity was quantified by incorporation into organic phase (lipids) with liquid scintillation (LKB 1210 Rackbeta) after chloroform evaporation. The organic phases were dried under nitrogen and thin layer chromatography (TLC; plates Merck K60) was performed by using two solvent systems: chloroform/methanol/water for Phospholipids (50:18:2.6) or hexane/ether/acetic acid for Neutral lipids (15:5.6:0.19). The various metabolites were quantified by performing a direct count of the radioactivity of the various spots on TLC plates with Phosphorlmager Cyclone™ and Multigauge software (Fujifilm).

[12] = culture with TGFβ section, TGFβ alone 1 · 10^−5 g/L (reference of this section)
[13] = culture without TGFβ section, TGFβ alone 1 · 10^−5 g/L
[14] = skin explants without contaminant

In the case of TGFβ, the “increase of hyaluronic acid synthesis” value ([1]; TGFβ at 10 ng/ml) is reported as 4 folds, the HA [1, 12] is reported as 16.05 µg/mL and the “HA % of control” value [1, 12] is reported as 100%. The HA [1, 13] was 11.73 µg/mL and the “HA % of control” value [1, 13] was 473** %.
`[Ca+2].[Cl-].[Cl-]` [CaCl2] was tested, and the “KLK6 expression (control = 100)” value ([2]; 1.5 mM) was 110, the “KLK7 expression (control = 100)” value ([3]; 1.5 mM) was 291 and the “LOR expression (control = 100)” value ([4]; 1.5 mM) was 98. The “FLG expression (control = 100)” value ([5]; 1.5 mM) was 125, the “KLK5 expression (control = 100)” value ([6]; 1.5 mM) was 207 and the “INV expression (control = 100)” value ([7]; 1.5 mM) was 282. The “desquamation/differentiation gene expression profile” value [8] was “pro differentiation profile”.
In the case of `COc1ccc(O)c(C(C)(C)C)c1` [BHA], the “% protection (intracellular lipid peroxides)” value [9] is reported as 76%.
In the case of `Cc1c(C)c2c(c(C)c1O)CC[C@@](C)(CCC[C@H](C)CCC[C@H](C)CCCC(C)C)O2` [α tocopherol], the “% pollution” value ([10]; skin explants + contaminant) is reported as 24.13%, the “% protection” value ([10]; skin explants + contaminant) is reported as 75.9% and the “antipollution activity (conclusion of MDA assay)” value ([10]; skin explants + contaminant) is reported as “reduced pollutants activity”. For the same molecule, the MDA concentration ([10]; skin explants + contaminant (heavy metals and hydrocarbon)) was 544.93 pmol/mL, the “% pollution” value [10, 14] was 0.00% and the MDA concentration [10, 14] was 392.28 pmol/mL.
`CC1=C(/C=C/C(C)=C/C=C/C(C)=C/C(=O)O)C(C)(C)CCC1` [Retinoic acid] was tested, and the “KLK6 expression (control = 100)” value ([2]; 10^−7M) was 315, the “KLK7 expression (control = 100)” value ([3]; 10^−7M) was 268 and the “LOR expression (control = 100)” value ([4]; 10^−7M) was 29. The “FLG expression (control = 100)” value ([5]; 10^−7M) was 35, the “KLK5 expression (control = 100)” value ([6]; 10^−7M) was 146 and the “Ceramides and cerebrosides (Cera/Cere) synthesis” value [11] was 85* % Control. For the same molecule, the “Cholesterol (C) synthesis” value [11] was 77* % Control, the “Esterified Fatty Acids (EFA) synthesis” value [11] was 133 % Control and the “Free Fatty Acids (FFA) synthesis” value [11] was 76 % Control. For the same molecule, the “Phospholipids (PL) synthesis” value [11] was 105 % Control, the “Sphingomyelin (SM) synthesis” value [11] was 106 % Control and the “Sulfate Cholesterol (CSO4) synthesis” value [11] was 92 % Control. For the same molecule, the “Total Lipids (TL) synthesis” value [11] was 175** % Control, the “Total Lipids (TL) synthesis” value ([11]; listed as retinoic acid) was 175 % Control and the “INV expression (control = 100)” value ([7]; 10^−7M) was 79.
